Assay [1] relates to multi-drug resistant (MDR) lung carcinoma cell line H69/LX4. In words: cells. Particulars: for INCREASED SENSITIVITY H69/Lx4: Table VIII, values equal IC50 NONE / IC50 with VB 25 ng/ml of Table VII, 10080 min. Here is the method: The riminophenazines of the above formula (I), contain an imino group. […] The potency of compounds of the above general formula, as inhibitors of multi-drug resistance, was assessed by sensitization of a P-glycoprotein positive cell line to drugs associated with this form of resistance. A human small cell lung cancer cell line H 69/P as well as a multi-drug resistance (MDR) sub-line H69/LX4 were used. These cell lines were obtained from the Medical Research Council Clinical Oncology and Radiotherapeutics Unit, Hills Road, Cambridge, England. The H69/LX4 line was selected in vitro by progressive exposure to increasing concentrations of doxorubicin in order to increase P-glycoprotein expression.
The cell lines used were human small cell lung cancer cell line HP69/P and a multi-drug resistant (MDR) sub-line H69/LX4, both of which were supplied by the MRC Clinical Oncology and Radiotherapeutics Unit, Hills Road, Cambridge, England. The maintenance of the cell lines and drug response assays was done as described by Twentyman et al in British Journal of Cancer Volume 65 pages 335-340. The H69/LX4 line was originally described by Twentyman et al in British Journal of Cancer Volume 53, pages 529-637 (1986).
The data in parenthesis represents fold sensitivity compared with the chemotherapeutic agent without the MDR inhibitor.
The results obtained, are illustrated graphically in FIGS. 4 to 7 of the accompanying drawings.
(§1) The general procedure set forth above was followed, i.e. 7 days incubation in the4 presence of doxorubicin at 12,5 ng/ml or vinblastine at 25 or 3 ng/ml.
(§2) The effects were examined over a seven (7) day exposure to different concentrations of B4119 and B4125 on the sensitivity of a doxorubicin resistant leukaemia cell line (K562/MMB) and a lung carcinoma cell line (H69/LX4) to doxorubicin (dox) and vinblastine (VB) using the MTT assay.

Assay [2] deals with MDR leukaemia cell line K562/MMB. The assay can be described thus: cells. The note with it: for INCREASED SENSITIVITY K 562/MMB: Table VIII, values equal IC50 NONE / IC50 with VB 3 ng/ml of Table VII, 10080 min. The procedure: A third cell line (562/MMB) used was a MDR leukemia cell line selected in vitro by progressive exposure to increasing concentrations of vinblastine in order to increase P-glycoprotein expression. This cell line was developed in the Department of Immunology, University of Pretoria from K562 (ATCC CCL 243) supplied by Highveld Biological (Pty) Ltd, Sandton.
as §1, §2

The subject of assay [3] is gram positive microorganisms (Mycobacterium, Enterococcus, Streptococcus, methicillin resistant Staphylococcus). In words: anti-bacterial activity.
Where [4] appears, read: Homo sapiens, 168 h, read-out: IC 50 H69/Lx4 NONE.
[5] abbreviates: Homo sapiens, read-out: IC 50 H69/Lx4 DOX 12 ng/ml.
The mark [6] stands for this setting: Homo sapiens, read-out: IC 50 H69/Lx4 VB 25 ng/ml.
The mark [7] stands for this setting: Homo sapiens, K562, read-out: IC 50 K562/MMB DOX 12 ng/ml, Table VII, with doxorubicin 12 ng/ml.
Setting [8] is: Homo sapiens, K562, read-out: IC 50 K562/MMB VB 3 ng/ml, Table VII, with vinblastine 3 ng/ml.
Setting [9] is: Homo sapiens, 168 h, read-out: cytotoxic activity of chemotherapeutic agent at the concentration used with the riminophenazine.
The mark [10] stands for this setting: Homo sapiens, K562, 168 h, read-out: cytotoxic activity of chemotherapeutic agent at the concentration used with the riminophenazine.

Experimental findings from patent publication US5763443A, “MDR resistance treatment and novel pharmaceutically active riminophenazines” (priority 1994, dated 1998) are described below.

In brackets after ≈: the same amount, converted by molar mass. Read-outs that look alike come from different tables or passages of the source.

With `CC1(C)CC(N=c2cc3n(-c4ccc(F)c(Cl)c4)c4ccccc4nc-3cc2Nc2ccc(F)c(Cl)c2)CC(C)(C)N1` [Compound B4119, N,5-bis(3-chloro-4-fluorophenyl)-3,5-dihydro-3-[(2',2',6',6'-tetramethyl-4-piperidyl)-imino]-2-phenazinamine], the IC50 in assay [1] (setting [4]) amounted to 0.62 µg/mL (≈ 1.02 µM); in assay [1] (Homo sapiens, read-out: IC50 H69/LX4 +VB (25 ng/ml)), 0.109 µg/mL (≈ 0.18 µM); in assay [1] (Homo sapiens, read-out: IC50 H69/LX4 +dox (12 ng/ml)), 0.6 µg/mL (≈ 0.989 µM); in assay [1] (Homo sapiens, read-out: IC50 H69/LX4 none) it was 0.62 µg/mL (≈ 1.02 µM); in assay [1] (setting [5]) it was 0.6 µg/mL (≈ 0.989 µM); in assay [1] (setting [6]), 0.109 µg/mL (≈ 0.18 µM). Moreover, the IC50 came out at 0.276 µg/mL (≈ 0.455 µM) in assay [2] (Homo sapiens, K562, 168 h, read-out: IC 50 K562/MMB NONE); 0.189 µg/mL (≈ 0.312 µM) in assay [2] (Homo sapiens, K562, read-out: IC50 K562/MMB +VB (3 ng/ml), Table VI, with vinblastine 3 ng/ml); 0.147 µg/mL (≈ 0.242 µM) in assay [2] (Homo sapiens, K562, read-out: IC50 K562/MMB +dox (12 ng/ml), Table VI, with doxorubicin 12 ng/ml); 0.147 µg/mL (≈ 0.242 µM) in assay [2] (setting [7]); 0.189 µg/mL (≈ 0.312 µM) in assay [2] (setting [8]); 0.276 µg/mL (≈ 0.455 µM) in assay [2] (Homo sapiens, K562, read-out: IC50 K562/MMB none). Also, the “INCREASED SENSITIVITY H69/Lx4” value in assay [1] came out at 5.69. In addition, the “INCREASED SENSITIVITY K 562/MMB” value in assay [2] is given as 1.46. Also, the “anti-bacterial activity” value in assay [3] is given as “Particularly active”.
As to `CC1(C)CC(N=c2cc3n(-c4ccc(Cl)c(C(F)(F)F)c4)c4ccccc4nc-3cc2Nc2ccc(Cl)c(C(F)(F)F)c2)CC(C)(C)N1` [Compound B4163, N,5-bis[(3-trifluoromethyl)-4-chlorophenyl]-3,5-dihydro-3-[(2',2',6',6'-tetramethylpiperidyl)-imino]-2-phenazinamine], the IC50 in assay [1] (setting [4]) was 0.972 µg/mL (≈ 1.38 µM); in assay [1] (setting [5]) it was 0.846 µg/mL (≈ 1.2 µM); in assay [1] (setting [6]), 0.281 µg/mL (≈ 0.398 µM); in assay [2] (setting [8]) it was 0.032 µg/mL (≈ 0.0453 µM). Moreover, the “INCREASED SENSITIVITY H69/Lx4” value in assay [1] was found to be 3.46. For the same compound, in assay [2], the “INCREASED SENSITIVITY K 562/MMB” value came to 10.63. Further, the “MDR activity / sensitivity against cell line K562/MMP” value in assay [2] (compared with known reference compound B4100) is “increased substantially and unexpectedly”.
Take `COc1ccc(Nc2cc3nc4ccccc4n(-c4ccc(OC)cc4)c-3cc2=NC2CC(C)(C)NC(C)(C)C2)cc1` [Compound B4174, N,5-bis(4-methoxyphenyl)-3,5-dihydro-3-[(2',2',6',6'-tetramethyl-4-piperidyl)-imino]-2-phenazinamine]: the IC50 in assay [1] (setting [4]) turned out to be 0.462 µg/mL (≈ 0.822 µM); in assay [1] (setting [5]), 0.587 µg/mL (≈ 1.04 µM); in assay [1] (setting [6]) it was 0.535 µg/mL (≈ 0.952 µM). Also, the “INCREASED SENSITIVITY H69/Lx4” value in assay [1] is 0.86. For the same compound, the “INCREASED SENSITIVITY K 562/MMB” value in assay [2] was 1.78.
As for `CC1(C)CC(N=c2cc3n(-c4ccc(C(F)(F)F)cc4C(F)(F)F)c4ccccc4nc-3cc2Nc2ccc(C(F)(F)F)cc2C(F)(F)F)CC(C)(C)N1` [Compound B4178, N,5-bis(2,4-di-trifluoromethyl-phenyl)-3,5-dihydro-3-[(2',2',6',6'-tetramethylpiperidyl)-imino]phenazinamine], the IC50 in assay [1] (setting [4]) was 0.785 µg/mL (≈ 1.01 µM); in assay [1] (setting [5]) it was 0.521 µg/mL (≈ 0.673 µM); in assay [1] (setting [6]), 0.399 µg/mL (≈ 0.516 µM); in assay [2] (Homo sapiens, K562, 168 h, read-out: IC 50 K562/MMB NONE, Table VII, riminophenazine alone, 7 day), 1.02 µg/mL (≈ 1.32 µM); in assay [2] (setting [7]) it was 0.919 µg/mL (≈ 1.19 µM); in assay [2] (setting [8]), 0.199 µg/mL (≈ 0.257 µM). Moreover, the “INCREASED SENSITIVITY H69/Lx4” value in assay [1] amounted to 1.97. In assay [2], the “INCREASED SENSITIVITY K 562/MMB” value amounted to 6.03.
On to `COc1cccc2c1C(=O)c1c(O)c3c(c(O)c1C2=O)C[C@@](O)(C(=O)CO)C[C@@H]3O[C@H]1C[C@H](N)[C@H](O)[C@H](C)O1` [Doxorubicin, reference compound], for which the cytotoxicity at 0.0125 µg/mL in assay [1] (setting [9]) and in assay [2] (setting [10]) was less than 10% each time.
On to `CC[C@]1(O)C[C@@H]2CN(CCc3c([nH]c4ccccc34)[C@@](C(=O)OC)(c3cc4c(cc3OC)N(C)[C@H]3[C@@](O)(C(=O)OC)[C@H](OC(C)=O)[C@]5(CC)C=CCN6CC[C@]43[C@@H]65)C2)C1` [Vinblastine, reference compound], for which the cytotoxicity at 0.025 µg/mL in assay [1] (setting [9]) is less than 10%. For the same compound, in assay [2] (setting [10]), the cytotoxicity at 0.003 µg/mL is less than 10%.
